This is an account of results in PubChem BioAssay (NCI).

Values joined by “and” are separate entries in the source; they are usually repeats but may differ in a detail not shown here. Identical values can stand only once.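 Cultured in 96-well plates, cells were exposed to test compound for 48 hours across five concentrations. GI50 marks 50% less growth. TGI marks complete inhibition of growth.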

What all share (assay): inhibition of tumour cell growth, NCI panel, 48 h
Experiment [1] concerns OVCAR-8 ovarian.
Experiment [2] deals with HL-60(TB) leukemia.
In experiment [3] the test system is SNB-19 CNS.
In experiment [4] the test system is OVCAR-4 ovarian.
In experiment [5] the test system is CCRF-CEM leukemia.
Experiment [6] concerns A498 renal.
For experiment [7], the system named is OVCAR-3 ovarian.
The subject of experiment [8] is MDA-MB-231 breast.
In experiment [9] the test system is MDA-MB-435.
Experiment [10] concerns UACC-62 melanoma.

For `CC1CN=C(N(C(=O)Nc2ccccc2)C2CCCCC2)S1` (centres undefined), the TGI in experiment [1] worked out at 75 µM; in experiment [2] it was 35.6 µM; in experiment [3], 81.8 µM; in [4], 30.2 µM; in [5], 53.7 µM; in experiment [6], 34.7 µM. The TGI in experiment [7] was found to be 31.8 µM; in experiment [8], 29.9 µM.

On to `O=c1[nH]c(=O)c2c([nH]1)[nH]c1ccccc12`, for which the TGI in experiment [1], in [3], in experiment [9], in [4], in [5] and in experiment [6] was over 100 µM throughout. In addition, the TGI in experiment [7], in experiment [10] and in experiment [8] was over 100 µM throughout.

For the molecule `CC1[C@@H]2C[C@@H]3O[C@@]34[C@H]3CCC5Cc6nc7c(nc6C[C@@]5(C)C3(O)CC(=O)[C@@]24CO[C@]12OC(C)(C)CC2O)CC1CC[C@@H]2C3=C[C@H]4O[C@@]5(O[C@@](C)(CO)C[C@@H]5O)C(C)[C@@]4(O)[C@]3(C)[C@@H](O)CC2[C@]1(C)C7` (some centres undefined), the TGI in [1] is over 3.52 µM; in experiment [2], 0.0305 µM; in experiment [4] it was over 3.52 µM; in experiment [5], 0.0413 µM; in experiment [6], 0.0643 µM; in experiment [7], over 3.52 µM. Moreover, the TGI in [10] amounted to 0.104 µM.

Regarding `C[S+](C)C1(c2ccccc2)C(=O)c2ccccc2C1=O`, the TGI in experiment [1] is over 100 µM; in experiment [2] it was over 31.6 µM; in [3] it was over 100 µM; in [9], over 100 µM; in experiment [4], over 100 µM; in [5], over 85.8 µM. Moreover, the values for the TGI in [6], in experiment [7] and in [10] were over 100 µM, over 100 µM and over 62.7 µM, respectively.

`S=C1NNC(=S)NN1`: the TGI in [1], in [2], in [3], in experiment [4], in experiment [5] and in [6] was over 1 µM each time. For the same molecule, the TGI in experiment [7], in experiment [10] and in experiment [8] was over 1 µM in each case.

For `O=c1cc(-c2ccccc2)[nH]c2c(F)ccc(F)c12`, the TGI in experiment [1], in [2], in experiment [4], in [5] and in experiment [10] was over 100 µM each time.

As to `NS(=O)(=O)c1ccc(NS(=O)(=O)c2ccc(NC(=O)N(c3ccccc3)c3ccccc3)cc2)cc1`, the TGI is over 100 µM in experiment [1]; over 100 µM in experiment [3]; 77 µM in [9]; over 100 µM in experiment [4]; over 100 µM in experiment [5]; over 100 µM in experiment [6]. For the same molecule, the values for the TGI in [7], in [10] and in experiment [8] were 50.2 µM, over 100 µM and over 100 µM, respectively.

For `Oc1[nH]c2ccccc2c1N=NC(=S)NCc1ccccn1`, the TGI in experiment [1] was 26.7 µM; in experiment [3], 15.2 µM; in [9], 17.4 µM; in experiment [4], 21 µM; in [6], 7.51 µM; in [7], 15.3 µM. The TGI came to 2.6 µM in experiment [10] and 20.8 µM in [8].

As for `COc1cccc2c1C(=O)c1c(O)c3c(c(O)c1C2=O)C[C@@](O)(C(=O)CO)CC3OC1CC(NCCCCC(OC(C)=O)OC(C)=O)C(O)C(C)O1` (some centres undefined), the GI50 in [1] is 0.00179 µM; in [5] it was 0.000538 µM; in experiment [10], 0.000655 µM. The TGI in experiment [1] was 0.0614 µM; in experiment [2], 0.00428 µM; in [3], over 1 µM; in experiment [4], 0.00449 µM and 0.00985 µM; in [5] it was 0.0118 µM; in experiment [6] it was 0.0211 µM. Further, the TGI in experiment [10] was 0.00374 µM and 0.00228 µM.

With `CN(C)CCSc1nccc(-c2ccc(-c3ccnc(SCCN(C)C)n3)s2)n1`, the TGI in [1] was found to be 31.4 µM; in [2] it was 6.01 µM; in [3], 38.8 µM; in experiment [4] it was 16.2 µM; in [5], 17.4 µM; in experiment [6] it was 29.6 µM. The TGI in [7] is 31.2 µM; in [10], 29.7 µM.

For the molecule `C/C(=N/OCCC(=O)O)C1CC1`, the TGI in [1], in experiment [2], in experiment [3], in experiment [4], in [5] and in [7] was over 100 µM each time. The molecule further registered a TGI in experiment [10] of over 100 µM.

As for `COc1ccc(OC)c([N+](=O)[O-])c1-c1nc2sc(C)cn2c1/C=N/N=C(N)N`, the TGI in experiment [1] is 76.8 µM; in [9] it was 56.7 µM; in experiment [4], 47.3 µM; in experiment [5], over 100 µM; in experiment [6], 78 µM; in [7] it was 85.6 µM. For the same molecule, the TGI in experiment [10] came out at 69.3 µM; in experiment [8], 84.4 µM.

For the molecule `C/C(=N\Nc1nc2ccccc2n1C)c1ccncn1`, the TGI in experiment [1] was over 40.9 µM; in [2] it was 0.0439 µM; in experiment [3], over 100 µM; in experiment [4], over 100 µM; in experiment [5], over 52.6 µM; in experiment [6], 5.79 µM. In experiment [8], the TGI is over 76.6 µM.

With `Cc1nc2ccccc2nc1N1CCCC1`, the TGI in experiment [1], in experiment [3], in experiment [9], in experiment [4], in experiment [6] and in [10] was over 100 µM in each case. Besides, the TGI in [8] was over 100 µM.

Consider `Cc1cc(N)c2cc(NC(=O)CCCCCCCCC(=O)Nc3ccc4nc(C)cc(N)c4c3)ccc2n1`, for which the TGI in [1] is over 100 µM; in experiment [2], over 100 µM; in experiment [3], over 100 µM; in [4], over 100 µM; in experiment [5], over 61.3 µM; in experiment [6], 74 µM. Also, the TGI in experiment [7] and in experiment [10] was over 100 µM throughout.

On to `Fc1sc2c(c1F)C1CCC2C1` (centres undefined), for which the TGI in experiment [1], in experiment [3], in experiment [9], in experiment [4], in experiment [6] and in experiment [7] was over 100 µM throughout. In addition, the TGI in [10] and in [8] was over 100 µM in each case.

Take H-KIFKKFKTIIKKVWRIFGRF-NH2: the GI50 in [1] is 3.28 µM; in experiment [2], 5.23 µM; in experiment [4], 2.13 µM; in [5] it was 2.53 µM; in experiment [7] it was 2.14 µM; in experiment [10], 2.03 µM. For the same molecule, the TGI in experiment [1] was over 100 µM; in experiment [2], 57.1 µM; in [4] it was 5.4 µM; in experiment [5], over 100 µM; in [7], 5.01 µM; in [10] it was 4.92 µM.

In the case of `CC1CC2OC(=N)C1(C#N)C2(C#N)C#N` (centres undefined), the TGI is over 100 µM in experiment [1]; over 100 µM in [3]; over 100 µM in experiment [9]; 44.3 µM in [5]; 42 µM in experiment [6]; over 100 µM in experiment [10]. The TGI in [8] is 38.4 µM.

Regarding `O=C(O)CSc1nnc(COc2ccccc2)n1-c1ccccc1`, the TGI in experiment [1], in [2], in [4], in experiment [5], in experiment [6] and in [7] was over 100 µM in each case.

Take `Cc1cccc(-c2cc(=O)c3cc(C)cnc3[nH]2)c1`: the TGI in experiment [2] was 0.355 µM; in [4], over 100 µM; in [5], 36.9 µM; in [6], over 24.2 µM; in experiment [10], over 100 µM.

Consider `CN(C)CC(C)(C)C(=O)/C=C/c1ccccc1`, for which the TGI is over 100 µM in [1]; 26.7 µM in experiment [2]; 31.4 µM in experiment [3]; 31.6 µM in experiment [4]; 23.2 µM in experiment [5]; 39.5 µM in experiment [6]. For the same molecule, the TGI in experiment [7] was 40.5 µM; in [10], 26.5 µM.

On to `CCC(C)Cn1c(C)nc2c1C(=O)c1ccccc1C2=O` (centres undefined), for which the TGI was over 100 µM in experiment [1]; 28.5 µM in [2]; over 100 µM in [3]; over 100 µM in [4]; 96.8 µM in experiment [5]; 66.7 µM in experiment [7]. Besides, the TGI in experiment [10] was 27.5 µM.

For `CCN(CC)CCC1(C(=O)OC)SCCc2ccc(C)cc21` (centres undefined), the TGI in experiment [1], in [3], in experiment [9], in experiment [4], in experiment [5] and in experiment [6] was over 100 µM in each case. For the same molecule, the TGI in [7] and in experiment [10] was over 100 µM throughout.

`COc1ccc(Nc2ccnc3cc(Cl)ccc23)cc1CN(CCCl)CCCl`: the GI50 was 2.2 µM in experiment [1]; 0.944 µM in [2]; 1.5 µM in experiment [3]; 1.74 µM in [4]; 0.664 µM in experiment [5]; 2.12 µM in [6]. In addition, the GI50 in experiment [7] is 1.95 µM; in experiment [8] it was 2.45 µM. For the same molecule, the TGI in experiment [1] was over 100 µM; in experiment [2], 3.96 µM; in experiment [4] it was 5.19 µM; in experiment [6], 6.47 µM; in [7] it was 6.04 µM; in experiment [8], 15.9 µM.
